From PubChem BioAssay AID248 (DTP/NCI, 2004)
“And” between values parts separate entries of the source, which are not always exact repeats. Equal entries are not always repeated. Inconclusive results and toxic doses are left out.

System: L1210 leukemia ip in BDF1 mice, survival T/C
Test: NCI In Vivo Anticancer Drug Screen. Data for tumor model L1210 Leukemia (intraperitoneal) in B6D2F1 (BDF1) mice
Conditions: endpoint: mean survival time, higher = longer survival
Outline: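 Tumor cells were implanted, animals were treated, and survival was followed. The result divides the treated measurement by the vehicle-control measurement.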

[1] = dose: 100.0 mg/kg/injection, schedule: Q01DX001 (ip), vehicle: saline
[2] = dose: 200.0 mg/kg/injection, schedule: Q01DX001 (ip), vehicle: saline
[3] = dose: 400.0 mg/kg/injection, schedule: Q01DX001 (ip), vehicle: saline
[4] = dose: 100.0 mg/kg/injection, schedule: Q04DX003 (ip), vehicle: saline
[5] = dose: 200.0 mg/kg/injection, schedule: Q04DX003 (ip), vehicle: saline
[6] = dose: 400.0 mg/kg/injection, schedule: Q04DX003 (ip), vehicle: saline
[7] = dose: 100.0 mg/kg/injection, schedule: Q01DX009 (ip), vehicle: acetone
[8] = dose: 100.0 mg/kg/injection, schedule: Q01DX001 (ip), vehicle: saline with Tween-80
[9] = dose: 200.0 mg/kg/injection, schedule: Q01DX001 (ip), vehicle: saline with Tween-80
[10] = dose: 100.0 mg/kg/injection, schedule: Q01DX009 (ip), vehicle: Klucel (hydroxypropylcellulose) (HPC)
[11] = dose: 200.0 mg/kg/injection, schedule: Q01DX009 (ip), vehicle: Klucel (hydroxypropylcellulose) (HPC)
[12] = dose: 100.0 mg/kg/injection, schedule: Q04DX002 (ip), vehicle: Klucel (hydroxypropylcellulose) (HPC)
[13] = dose: 200.0 mg/kg/injection, schedule: Q04DX002 (ip), vehicle: Klucel (hydroxypropylcellulose) (HPC)
[14] = dose: 400.0 mg/kg/injection, schedule: Q04DX002 (ip), vehicle: Klucel (hydroxypropylcellulose) (HPC)
[15] = dose: 100.0 mg/kg/injection, schedule: Q01DX001 (ip), vehicle: carboxymethylcellulose (CMC)
[16] = dose: 200.0 mg/kg/injection, schedule: Q01DX001 (ip), vehicle: carboxymethylcellulose (CMC)
[17] = dose: 400.0 mg/kg/injection, schedule: Q01DX001 (ip), vehicle: carboxymethylcellulose (CMC)
[18] = dose: 50.0 mg/kg/injection, schedule: Q01DX009 (ip), vehicle: Klucel (hydroxypropylcellulose) (HPC)
[19] = dose: 100.0 mg/kg/injection, schedule: Q04DX002 (ip), vehicle: saline with Tween-80
[20] = dose: 200.0 mg/kg/injection, schedule: Q04DX002 (ip), vehicle: saline with Tween-80
[21] = dose: 400.0 mg/kg/injection, schedule: Q04DX002 (ip), vehicle: saline with Tween-80

CC(C)OC(=O)C(C)OC(=O)C1CCCCC1 (stereo unspecified)
T/C [1]: 98 % of control
T/C [2]: 97 % of control
T/C [3]: 93 % of control

COC(=O)c1cccc2c1C(Br)C(Br)c1ccccc1-2 (stereo unspecified)
T/C [1]: 101 % of control
T/C [4]: 100 % of control
T/C [2]: 98 % of control
T/C [5]: 97 % of control
T/C [3]: 98 % of control
T/C [6]: 94 % of control

c1ccc(N=Nc2ccc[nH]2)cc1
T/C (dose: 50.0 mg/kg/injection, schedule: Q01DX009 (ip), vehicle: acetone): 98 % of control
T/C [7]: 102 % of control

CCC1(O)C(=O)OCc2c1cc(C(=O)OC)n(C)c2=O (stereo unspecified)
T/C (dose: 25.0 mg/kg/injection, schedule: Q01DX001 (ip), vehicle: saline with Tween-80): 97 % of control
T/C (dose: 50.0 mg/kg/injection, schedule: Q01DX001 (ip), vehicle: saline with Tween-80): 95 % of control
T/C [8]: 97 % of control
T/C [9]: 98 % of control

O=S1(=O)CCc2ccccc21
T/C [1]: 97 % of control
T/C [2]: 111 % of control
T/C [3]: 104 % of control

Nc1nc2c(ncn2CCC(N)C(=O)O)c(=O)[nH]1 (stereo unspecified)
T/C [4]: 104 % of control
T/C [5]: 98 % of control
T/C [6]: 107 % of control

Nc1cc(Cl)c(N)c(N)n1
T/C [8]: 94 % of control
T/C [9]: 109 % of control
T/C (dose: 400.0 mg/kg/injection, schedule: Q01DX001 (ip), vehicle: saline with Tween-80): 108 % of control

CCOC(=O)C(C)Cl (stereo unspecified)
T/C [10]: 97 % of control
T/C (dose: 100.0 mg/kg/injection, schedule: Q04DX003 (ip), vehicle: Klucel (hydroxypropylcellulose) (HPC)): 103 % of control
T/C [11]: 96 % of control
T/C (dose: 200.0 mg/kg/injection, schedule: Q04DX003 (ip), vehicle: Klucel (hydroxypropylcellulose) (HPC)): 103 % of control
T/C (dose: 400.0 mg/kg/injection, schedule: Q04DX003 (ip), vehicle: Klucel (hydroxypropylcellulose) (HPC)): 103 % of control

CC(C)(C)c1ccc(SC/C=C/COc2ccccc2)cc1
T/C (dose: 75.0 mg/kg/injection, schedule: Q01DX009 (ip), vehicle: Klucel (hydroxypropylcellulose) (HPC)): 101 % of control
T/C (dose: 150.0 mg/kg/injection, schedule: Q01DX009 (ip), vehicle: Klucel (hydroxypropylcellulose) (HPC)): 90 % of control
T/C (dose: 300.0 mg/kg/injection, schedule: Q01DX009 (ip), vehicle: Klucel (hydroxypropylcellulose) (HPC)): 91 % of control

Nc1c2ccccc2c[n+]2ccccc12
T/C (dose: 50.0 mg/kg/injection, schedule: Q01DX009 (ip), vehicle: saline): 150 % of control
T/C (dose: 100.0 mg/kg/injection, schedule: Q01DX009 (ip), vehicle: saline): 163 % of control

COC(C)C1(C)NC(=O)NC1=O (stereo unspecified)
T/C [1]: 114 % of control
T/C [2]: 110 % of control
T/C [3]: 102 % of control

COC(=O)C12Oc3ccc(-c4ccc5c(c4O)C(O)=C4C(=O)CC(C)C(O)C4(C(=O)OC)O5)c(O)c3C(O)=C1C(=O)CC(C)C2O (stereo unspecified)
T/C (dose: 1.56 mg/kg/injection, schedule: Q01DX009 (ip), vehicle: saline with Tween-80): 104 % of control
T/C (dose: 3.13 mg/kg/injection, schedule: Q01DX009 (ip), vehicle: saline with Tween-80): 100 % of control
T/C (dose: 6.25 mg/kg/injection, schedule: Q01DX009 (ip), vehicle: saline with Tween-80): 105 % of control and 91 % of control
T/C (dose: 12.5 mg/kg/injection, schedule: Q04DX003 (ip), vehicle: saline with Tween-80): 98 % of control
T/C (dose: 25.0 mg/kg/injection, schedule: Q04DX003 (ip), vehicle: saline with Tween-80): 110 % of control
T/C (dose: 50.0 mg/kg/injection, schedule: Q04DX003 (ip), vehicle: saline with Tween-80): 104 % of control

CC1CCCCN1Cc1ccccc1COC(=O)c1ccc([N+](=O)[O-])cc1 (stereo unspecified)
T/C [12]: 90 % of control
T/C [13]: 104 % of control
T/C [14]: 114 % of control

Clc1ccc2c(c1)N(C1CCCN(Cc3ccccc3)C1)c1ccccc1S2 (stereo unspecified)
T/C [15]: 94 % of control
T/C [16]: 94 % of control
T/C [17]: 90 % of control

O=C1N(CCO)CNC1(c1ccccc1)c1ccccc1
T/C [8]: 102 % of control
T/C [9]: 98 % of control

S=C1N/N=C/NN/C=N/N1
T/C (dose: 10.0 mg/kg/injection, schedule: Q01DX001 (ip), vehicle: saline): 105 % of control
T/C (dose: 20.0 mg/kg/injection, schedule: Q01DX001 (ip), vehicle: saline): 94 % of control

CN(C)C1CCC(/C=C(\C#N)C2CCC([N+](=O)[O-])CC2)CC1 (stereo unspecified)
T/C (dose: 25.0 mg/kg/injection, schedule: Q04DX002 (ip), vehicle: Klucel (hydroxypropylcellulose) (HPC)): 109 % of control
T/C [18]: 106 % of control
T/C (dose: 50.0 mg/kg/injection, schedule: Q04DX002 (ip), vehicle: Klucel (hydroxypropylcellulose) (HPC)): 95 % of control
T/C [10]: 106 % of control
T/C [12]: 95 % of control
T/C [11]: 102 % of control
T/C [13]: 95 % of control and 100 % of control
T/C [14]: 103 % of control

CCOC(C[N+](C)(C)CCC[N+](C)(C)CC(OCC)OCC)OCC
T/C [1]: 111 % of control
T/C [2]: 96 % of control
T/C [3]: 111 % of control

Nc1ccc(NS(=O)(=O)CCl)cc1
T/C [19]: 111 % of control
T/C [20]: 116 % of control
T/C [21]: 96 % of control

C[N+](C)(C)CCO
T/C (dose: 50.0 mg/kg/injection, schedule: Q04DX003 (ip), vehicle: none): 99 % of control and 105 % of control
T/C (dose: 100.0 mg/kg/injection, schedule: Q04DX003 (ip), vehicle: none): 97 % of control and 102 % of control
T/C [4]: 95 % of control
T/C (dose: 200.0 mg/kg/injection, schedule: Q04DX003 (ip), vehicle: none): 96 % of control and 99 % of control
T/C [5]: 96 % of control
T/C [6]: 106 % of control

COc1ccccc1NC(=O)N(O)C1(C#N)CCCCC1
T/C [15]: 94 % of control
T/C [16]: 93 % of control
T/C [17]: 96 % of control

Nc1ncnc(N)c1NC(=O)c1cccnc1
T/C [4]: 92 % of control
T/C [5]: 96 % of control
T/C [6]: 100 % of control

CCOC(=O)/C(O)=C/c1cnc2ccccc2n1
T/C [18]: 94 % of control
T/C [10]: 91 % of control
T/C [11]: 94 % of control

CC(C)=C1C2CCC1NN2
T/C (dose: 50.0 mg/kg/injection, schedule: Q01DX001 (ip), vehicle: Klucel (hydroxypropylcellulose) (HPC)): 108 % of control

CC(C)(C)c1cc(NS(=O)(=O)c2ccccc2)c(N=[N+]=[N-])c(Cl)c1NS(=O)(=O)c1ccccc1
T/C [19]: 102 % of control
T/C [20]: 91 % of control
T/C [21]: 102 % of control

CC(=O)Nc1c(Cl)c(Cl)c2c(c1Cl)Cc1cc(Cl)ccc1-2
T/C [7]: 90 % of control
T/C [4]: 93 % of control
T/C (dose: 200.0 mg/kg/injection, schedule: Q01DX009 (ip), vehicle: acetone): 93 % of control
T/C [5]: 91 % of control
T/C (dose: 400.0 mg/kg/injection, schedule: Q01DX009 (ip), vehicle: acetone): 95 % of control
T/C [6]: 91 % of control

CCCCCCCCCCCCCCCCCCNc1nc(SC)ncc1C(=O)OCC
T/C (dose: 25.0 mg/kg/injection, schedule: Q01DX001 (ip), vehicle: saline): 103 % of control
T/C (dose: 50.0 mg/kg/injection, schedule: Q01DX001 (ip), vehicle: saline): 102 % of control
T/C [1]: 101 % of control and 102 % of control

N/N=C(/CC1C(=O)Nc2ccccc21)c1ccccc1 (stereo unspecified)
T/C [12]: 94 % of control
T/C [13]: 108 % of control
T/C [14]: 91 % of control

CC1(c2ccccc2)O[C@@H]2C[C@H]3[C@@H]4CCC5=CC(=O)C=C[C@]5(C)[C@@]4(F)[C@@H](O)C[C@]3(C)[C@]2(C(=O)CO)O1 (stereo partly specified)
T/C (dose: 100.0 mg/kg/injection, schedule: Q01DX001 (sc), vehicle: steriod suspending solution): 117 % of control
T/C (dose: 200.0 mg/kg/injection, schedule: Q01DX001 (sc), vehicle: steriod suspending solution): 98 % of control
T/C (dose: 400.0 mg/kg/injection, schedule: Q01DX001 (sc), vehicle: steriod suspending solution): 107 % of control
